Measured values as given in US7452887B2, “Quinoline- and isoquinoline-based compounds exhibiting ATP-utilizing enzyme inhibitory activity, and compositions, and uses thereof” (Amphora Discovery Corporation, priority 2004, dated 2008).

Experiments:
MAPKAPK2 = MAPKAPK2 (Homo sapiens, UniProt P49137); assay: HTS ATP-utilizing enzyme assay, off-chip mobility-shift (Caliper HTS 250); type: biochemical; details: test compound 10 μM, kinase listed = active (greater than six-sigma from the mean activity of inactive compounds)
Procedure, shortened: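 Phosphorylation of a peptide substrate was quantified by Caliper mobility-shift separation of substrate and product after 2.5 h at 20-22 °C, with compounds tested at 10 μM. Inhibition was normalized to EDTA-quenched (100%) and DMSO (0%) controls; six-sigma thresholds flagged actives.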

PRAK = molecular target: T1, PRAK (Homo sapiens, UniProt Q8IW41); assay: as above; type: biochemical; details: test compound 10 μM, kinase listed = active (greater than six-sigma from the mean activity of inactive compounds)
T1 sequence (Q8IW41 1-473): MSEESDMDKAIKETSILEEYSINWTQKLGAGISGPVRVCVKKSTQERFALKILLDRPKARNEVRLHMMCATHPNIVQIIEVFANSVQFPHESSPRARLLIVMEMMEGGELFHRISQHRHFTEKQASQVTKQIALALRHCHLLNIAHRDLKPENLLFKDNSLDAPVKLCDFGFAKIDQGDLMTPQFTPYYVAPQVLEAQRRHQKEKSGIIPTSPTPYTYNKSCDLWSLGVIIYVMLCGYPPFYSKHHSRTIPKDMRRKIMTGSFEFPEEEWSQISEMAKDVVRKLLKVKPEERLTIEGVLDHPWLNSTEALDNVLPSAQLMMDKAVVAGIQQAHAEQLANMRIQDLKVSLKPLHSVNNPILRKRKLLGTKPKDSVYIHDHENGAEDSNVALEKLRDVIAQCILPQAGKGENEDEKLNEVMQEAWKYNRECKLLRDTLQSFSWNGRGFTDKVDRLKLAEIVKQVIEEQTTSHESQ
Procedure, shortened: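 Inhibition is reported from a single 10 μM concentration. Kinase phosphorylates a peptide substrate over 2.5 hrs at 20° C. to 22° C. before EDTA termination. Potential hits are those beyond six-sigma statistical limits.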

Sequence of MAPKAPK2 (P49137 whole entry): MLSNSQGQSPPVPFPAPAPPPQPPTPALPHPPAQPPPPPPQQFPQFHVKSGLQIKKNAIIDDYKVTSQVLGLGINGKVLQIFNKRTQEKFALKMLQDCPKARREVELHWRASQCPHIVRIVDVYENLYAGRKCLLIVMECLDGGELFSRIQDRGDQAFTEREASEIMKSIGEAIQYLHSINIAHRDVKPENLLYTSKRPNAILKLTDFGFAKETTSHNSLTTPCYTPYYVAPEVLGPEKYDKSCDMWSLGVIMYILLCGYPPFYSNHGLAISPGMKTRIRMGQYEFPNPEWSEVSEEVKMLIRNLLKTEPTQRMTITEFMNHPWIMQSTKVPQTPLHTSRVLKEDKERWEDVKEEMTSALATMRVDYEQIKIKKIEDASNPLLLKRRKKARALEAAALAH

Row | Activity (MAPKAPK2) | Activity (PRAK) | SMILES
1 | MAPKAPK2 | PRAK | CN1CCN(c2ccc(Nc3ccnc4ccc(-c5ccc6ccccc6c5)cc34)cc2)CC1 [N-(4-(4-methylpiperazin-1-yl)phenyl)-6-(naphthalen-2-yl)quinolin-4-amine]
2 | MAPKAPK2 | PRAK | Cc1ccccc1-c1ccc2nccc(Nc3ccc(N4CCN(C)CC4)cc3)c2c1 [N-(4-(4-methylpiperazin-1-yl)phenyl)-6-o-tolylquinolin-4-amine]
3 | MAPKAPK2 | PRAK | CN1CCN(c2ccc(Nc3ccnc4ccc(-c5cccc6ccccc56)cc34)cc2)CC1 [N-(4-(4-methylpiperazin-1-yl)phenyl)-6-(naphthalen-1-yl)quinolin-4-amine]
4 |  | PRAK | CN1CCN(c2ccc(Nc3ccnc4ccc(-c5ccncc5)cc34)cc2)CC1 [N-(4-(4-methylpiperazin-1-yl)phenyl)-6-(pyridin-4-yl)quinolin-4-amine]

Second part, the compound before the results:

Row | SMILES | Activity (MAPKAPK2) | Activity (PRAK)
5 | COc1ccc(-c2ccc3nccc(N(C)c4ccc(N5CCN(C)CC5)cc4)c3c2)cc1 [6-(4-methoxyphenyl)-N-methyl-N-(4-(4-methylpiperazin-1-yl)phenyl)quinolin-4-amine] | MAPKAPK2 | 
6 | c1ccc(-c2ccc3nccc(Nc4ccc(N5CCNCC5)cc4)c3c2)cc1 [6-phenyl-N-(4-(piperazin-1-yl)phenyl)quinolin-4-amine] | MAPKAPK2 | PRAK
7 | COc1ccc(-c2ccc3nccc(Nc4ccc(N5CCNCC5)cc4)c3c2)cc1 [6-(4-methoxyphenyl)-N-(4-(piperazin-1-yl)phenyl)quinolin-4-amine] | MAPKAPK2 | PRAK
8 | CN1CCN(c2ccc(Nc3ccnc4ccc(-c5ccc(F)cc5)cc34)cc2)CC1 [6-(4-fluorophenyl)-N-(4-(4-methylpiperazin-1-yl)phenyl)quinolin-4-amine] | MAPKAPK2 | PRAK
9 | CN1CCN(c2ccc(Nc3ccnc4ccc(-c5ccc(O)cc5)cc34)cc2)CC1 [4-(4-(4-(4-methylpiperazin-1-yl)phenylamino)quinolin-6-yl)phenol] | MAPKAPK2 | PRAK
